According to patent US10016423B2, “Solid forms of nilotinib hydrochloride” (Apotex Inc., priority 2014, dated 2018):

Assay: Comparative hygroscopicity testing (water content by Karl Fischer analysis)
Assay type: physicochemical
Conditions: for Water content of sample after testing: after 24 hours at 25° C. in desiccator containing saturated ammonium sulphate solution, 1 g sample in unstoppered vessel, KF analysis; for Increase in water content: after vs before 24 hours at 25° C. over saturated ammonium sulphate solution; for Water content of sample before testing: before hygroscopicity testing, Karl Fischer (KF) analysis
Method: The hygroscopicity of form APO-III as reported in WO 2014/059518 A1 was compared with the hygroscopicity of the form APO-VII of the present invention.
The hygroscopicity testing was conducted by placing 1 g of each sample in an unstoppered weighing vessel in a desiccator containing a saturated ammonium sulphate solution. The desiccator was placed in an oven at 25° C. for 24 hours. The water content was measured before and after the testing by Karl Fischer (KF) analysis.

Row | Compound | Water content of sample after testing [% w/w] | Increase in water content | Water content of sample before testing [% w/w]
1 | Cc1cn(-c2cc(NC(=O)c3ccc(C)c(Nc4nccc(-c5cccnc5)n4)c3)cc(C(F)(F)F)c2)cn1.Cl [Form APO-VII] | 0.4757 | 0.1812 | 0.2945
2 | Cc1cn(-c2cc(NC(=O)c3ccc(C)c(Nc4nccc(-c5cccnc5)n4)c3)cc(C(F)(F)F)c2)cn1.Cl [Form APO-III] | 3.5671 | 3.2795 | 0.2876
